Measured values as given in patent EP3677663A1, “NON-ENZYMATIC REMOVAL OF PROTEINACEOUS SOILS” (Henkel AG & Co. KGaA, priority 2019, dated 2020).

How the values were obtained:
Whey protein = test: Hydrolysis of unaltered Whey protein by polyoxometalates, monitored by SDS-PAGE; type: biochemical; conditions: 60°C, 1.5 mg/ml Whey protein, polyoxometalate 14 mg/ml
Description: (§1) All gels were 100x100x1 mm and the stacking gel was approximately 1 cm long from the bottom of the comb to the top of the resolving gel resulting in a resolving gel of 8 cm. 2. Table 1: Composition of the solutions to prepare 18% resolving and 5% stacking gel.
(§2) After pouring the resolving gel, a thin layer of isopropanol was carefully added on top of the gel. The resolving gel was left 1 hour to harden, and isopropanol was removed before pouring the stacking gel. A 12 well comb was placed inside the stacking gel and left to harden for an additional hour. The finished gels were kept in the fridge.
(§3) Samples were prepared by mixing a 10 µl of sample with 5 µl of 3X sample buffer (225 µl TRIS/HCI buffer (1M, pH 6.8), 630 mg glycerol, 50 mg SDS, 0.5 mg bromophenol blue and 250 µl 1 M DTI), incubating at 95 °C for 5 minutes and centrifuging the samples after they are cooled to room temperature. The wells of the stacking gel were loaded with 10 µl of sample and 5 µl of protein ladder.
(§4) An OmniPAGE electrophoretic cell was combined with an EV243 power supply (both produced by Consort) in experiments at 30 mA/gel and 100 V/gel for the 18% resolving gel (approximately 2.5 hours) and 20 mA/gel and 100 V/gel for the 12% resolving gel (approximately 1.5 hours). As anode and cathode buffer a TRIS/Tricine running buffer (0.1 M TRIS, 0.1 M Tricine and 0.1 wt/vol% SDS) was used for 18% gels and a TRIS/Glycine running buffer (0.2 M Glycine, 0.025 M TRIS and 0.1 wt/vol% SDS) for 12% gels. Before staining the gels were fixed for 1 hour in a 12 wt/vol% TCA solution. The staining was done by leaving the gels in a colloidal coomassie blue solution (700 ml H2O, 100 ml H3PO4, […], 1.2 g coomassie blue and 200 ml methanol) over night and subsequently destained with a heavy destain solution {60 ml methanol, 20 ml acetic acid and 120 ml water) and water. Finally, the gels were analyzed with a Gel Doc EZ imager and Image LabTM Software (both supplied by Bio-Rad). The kinetics of the reactions were studied by plotting the relative intensity of the intact proteins band in function of time and fitted to the exponential expression of a pseudo first-order reaction: I = I0 e^-kobst
(§5) In this equation I represents the intensity in function of time t, I0 the intensity at time 0 and kobs is the observed hydrolysis rate. The half-life (t½) of the intact protein was calculated according to t½ = (ln(2))/(kobs) [formula]
(§6) To solutions of 1.0 mg/ml solution of unaltered Ovalbumin or the Lactose/Ovalbumin Maillard reaction samples of example 4 or of 1.5 mg/ml solution of unaltered Whey protein or the Lactose/Whey protein Maillard reaction samples of example 4 were added the polyoxometalates of examples 1 to 3 at a concentration of 14 mg/ml. The rate of hydrolysis for the proteins at 60°C at pH 4 (sodium citrate buffer, 10 mM) and 9 (glycine/NaOH buffer, 10 mM) was studied over time. Results for the hydrolysis rate and the half-life of the unaltered protein samples are given in tables 5 and 6 and results for the half-life of altered proteinaceous samples of example 4 (treated at pH 9) are given in table 7. Table 5: Hydrolysis of unaltered Whey protein

Ovalbumin = molecular target: T1, Ovalbumin (Gallus gallus, UniProt P01012); test: Hydrolysis of unaltered Ovalbumin by polyoxometalates, monitored by SDS-PAGE; type: biochemical, chicken; conditions: 60°C, 1.0 mg/ml Ovalbumin, polyoxometalate 14 mg/ml
T1 construct: Ovalbumin from chicken egg was purchased from Acros (Mw 44.5 kDa); purchased Acros; host or cells: chicken egg
T1 sequence (P01012 1-386): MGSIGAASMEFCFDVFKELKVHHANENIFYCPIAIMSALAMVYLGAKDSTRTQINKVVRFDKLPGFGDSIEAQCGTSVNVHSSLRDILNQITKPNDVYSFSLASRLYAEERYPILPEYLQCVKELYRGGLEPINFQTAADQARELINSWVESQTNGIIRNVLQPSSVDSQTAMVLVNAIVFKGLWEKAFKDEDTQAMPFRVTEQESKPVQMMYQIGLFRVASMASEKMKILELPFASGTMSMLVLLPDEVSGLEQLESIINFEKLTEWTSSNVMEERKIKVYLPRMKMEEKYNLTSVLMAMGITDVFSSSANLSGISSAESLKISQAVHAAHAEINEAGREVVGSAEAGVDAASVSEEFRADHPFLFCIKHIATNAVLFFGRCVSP
Description: as §1, §2, §3, §4, §5, §6

[1] = pH 4 (sodium citrate buffer, 10 mM)
[2] = pH 9 (glycine/NaOH buffer, 10 mM)

Substance: ((C2H5)2NH2)6[Zr2(PW11O39)2] [Zr2Ke2]
- Rate x 10^-3 [min^-1] (Whey protein; [1]): 3.8±0.8 x 10^-3 min^-1
- Rate x 10^-3 [min^-1] (Whey protein; [2]): 1±1 x 10^-3 min^-1
- Rate x 10^-3 [min^-1] (Ovalbumin; [1]): 6±3 x 10^-3 min^-1
- Rate x 10^-3 [min^-1] (Ovalbumin; [2]): 7±3 x 10^-3 min^-1

Substance: ((C2H5)2NH2)10[Zr(PW11O39)2] [ZrKe2]
- Rate x 10^-3 [min^-1] (Whey protein; [1]): 1.8±0.7 x 10^-3 min^-1
- Rate x 10^-3 [min^-1] (Whey protein; [2]): 6±1 x 10^-3 min^-1
- Rate x 10^-3 [min^-1] (Ovalbumin; [1]): 4.3±0.4 x 10^-3 min^-1
- Rate x 10^-3 [min^-1] (Ovalbumin; [2]): 5±2 x 10^-3 min^-1

Substance: K10[Ce(PW11O39)2] [CeKe2]
- Rate x 10^-3 [min^-1] (Whey protein; [1]): 9±5 x 10^-3 min^-1
- Rate x 10^-3 [min^-1] (Whey protein; [2]): 5.30±0.04 x 10^-3 min^-1
- Rate x 10^-3 [min^-1] (Ovalbumin; [1]): 6±2 x 10^-3 min^-1
- Rate x 10^-3 [min^-1] (Ovalbumin; [2]): 7±1 x 10^-3 min^-1
